Results: paper PMC3573263 (Chemical biology & drug design, 2013)

Legend:
[1] = target: wild-type YopH (Yersinia pestis, UniProt O68720); assay: biochemical; format: binding
[2] = target: T1, YopH (Yersinia pestis, UniProt O68720); conditions: cited from earlier work
[3] = target: T1, YopH
[4] = target: N-terminus of YopH; conditions: read-out: equilibrium dissociation constant; cited from earlier work
[5] = target: YopH N-terminus (Yersinia pestis) (UniProt P08538); assay: NMR; conditions: cited from earlier work
Chain of YopH N-terminus (Yersinia pestis) (P08538 1-129): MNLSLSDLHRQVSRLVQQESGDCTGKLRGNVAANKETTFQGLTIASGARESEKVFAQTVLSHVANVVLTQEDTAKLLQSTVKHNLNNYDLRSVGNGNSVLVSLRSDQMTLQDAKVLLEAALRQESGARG

T1 sequence (O68720 164-468 limits assumed): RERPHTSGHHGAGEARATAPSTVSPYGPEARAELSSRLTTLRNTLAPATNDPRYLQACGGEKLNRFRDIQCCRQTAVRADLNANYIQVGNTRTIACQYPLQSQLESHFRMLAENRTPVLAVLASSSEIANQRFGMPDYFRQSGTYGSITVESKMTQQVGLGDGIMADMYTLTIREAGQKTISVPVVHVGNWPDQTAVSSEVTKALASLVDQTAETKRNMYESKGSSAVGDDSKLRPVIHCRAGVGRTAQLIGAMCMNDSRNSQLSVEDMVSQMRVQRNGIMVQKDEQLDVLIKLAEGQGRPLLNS
Chain of wild-type YopH (O68720 164-468 limits assumed): as above

| Compound | koff [1] | kon [1] | ΔG [1] | also measured |
| --- | --- | --- | --- | --- |
| N[C@@H](Cc1ccc(OP(=O)(O)O)cc1)C(=O)O [L-phosphotyrosine, reference compound] | 0.679 | 0.278 M⁻¹ s⁻¹ | -2.2 kcal/mol | Kd [1]: 24400 µM |
| O=C(O)c1ccc(/C=N/OCc2ccc(-c3cccc(C(F)(F)P(=O)(O)O)c3)cc2)o1 [compound 3, 5-((1E)-(((4-(3-(difluoro(phosphono)methyl)phenyl)phenyl)methoxy)imino)methyl)furan-2-carboxylic acid] | 0.945 (0.13) | 44.5 M⁻¹ s⁻¹ | – | Kd [1]: 239 µM |
| O=[N+]([O-])c1ccc(OP(=O)(O)O)cc1 [pNPP, para-nitrophenylphosphate] | – | – | – | catalytic activity of YopH toward substrate, lower than the pTyr-containing peptide [2]: 1300 fold |
| (difluoro((3-(4-((((E)-furan-2-ylmethylidene)amino)oxy)methyl)phenyl)phenyl))methyl) phosphonic acid [compound 2] | 2.15 (0.89) | – | −5.28 (0.20) kcal/ mol | – |
| (difluoro((3-(4-((((E)-furan-3-ylmethylidene)amino)oxy)methyl)phenyl)phenyl))methyl) phosphonic acid [compound 1] | 1.95 (0.95) | 73.4 (34.8) 1/Ms | −4.88 (0.43) kcal/ mol | inhibition of PTPase activity on microarrayed pTyr-EGFR peptide (in words) [3]: dose-response relationship |
| DADE-pYLIPQQG | – | – | – | rate constant for dephosphorylation [2]: 2.23e+07 M⁻¹ s⁻¹ |
| DADEpYL [hexapeptide] | – | – | – | Kd [4]: 10 µM |
| EGFR phosphopeptide (from UniProt P00533) | – | – | – | Kd [5]: 10 µM |
